Reference: patent publication US20200317660A1, “Quinazolinone Compound and Application Thereof” (LUOXIN PHARMACEUTICAL (SHANGHAI) CO., LTD., priority 2017, published 2020)

Columns and labels:
[1] = target: T1, PI3Kβ (Homo sapiens, UniProt P42338); experiment: In vitro test of enzyme activity (ADP-Glo lipokinase), PI3K beta; type: biochemical; conditions: 40 μM ATP, 50 μM PIP2:3PS, 120 min
T1 construct: purchased Promega V1751

[2] = system: phosphorylation of PI3K downstream protein Akt in MCF7 cells; experiment: In vitro test of cells activity: ELISA of Akt phosphorylation in MCF7 cells; type: cell-based; conditions: Homo sapiens, MCF7, 2 h, 2 h compound, insulin 10 μg/mL stimulation, pAkt ELISA, read-out: MCF7 Cell IC50
Summary of the method: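 MCF7 cells were serum-starved overnight, exposed to 10-point three-fold compound dilutions for 2 h at 37°C, then stimulated with 10 μg/mL insulin for 30 min. Lysates were assayed for phospho-Akt by ELISA.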

T1 sequence (P42338 whole entry): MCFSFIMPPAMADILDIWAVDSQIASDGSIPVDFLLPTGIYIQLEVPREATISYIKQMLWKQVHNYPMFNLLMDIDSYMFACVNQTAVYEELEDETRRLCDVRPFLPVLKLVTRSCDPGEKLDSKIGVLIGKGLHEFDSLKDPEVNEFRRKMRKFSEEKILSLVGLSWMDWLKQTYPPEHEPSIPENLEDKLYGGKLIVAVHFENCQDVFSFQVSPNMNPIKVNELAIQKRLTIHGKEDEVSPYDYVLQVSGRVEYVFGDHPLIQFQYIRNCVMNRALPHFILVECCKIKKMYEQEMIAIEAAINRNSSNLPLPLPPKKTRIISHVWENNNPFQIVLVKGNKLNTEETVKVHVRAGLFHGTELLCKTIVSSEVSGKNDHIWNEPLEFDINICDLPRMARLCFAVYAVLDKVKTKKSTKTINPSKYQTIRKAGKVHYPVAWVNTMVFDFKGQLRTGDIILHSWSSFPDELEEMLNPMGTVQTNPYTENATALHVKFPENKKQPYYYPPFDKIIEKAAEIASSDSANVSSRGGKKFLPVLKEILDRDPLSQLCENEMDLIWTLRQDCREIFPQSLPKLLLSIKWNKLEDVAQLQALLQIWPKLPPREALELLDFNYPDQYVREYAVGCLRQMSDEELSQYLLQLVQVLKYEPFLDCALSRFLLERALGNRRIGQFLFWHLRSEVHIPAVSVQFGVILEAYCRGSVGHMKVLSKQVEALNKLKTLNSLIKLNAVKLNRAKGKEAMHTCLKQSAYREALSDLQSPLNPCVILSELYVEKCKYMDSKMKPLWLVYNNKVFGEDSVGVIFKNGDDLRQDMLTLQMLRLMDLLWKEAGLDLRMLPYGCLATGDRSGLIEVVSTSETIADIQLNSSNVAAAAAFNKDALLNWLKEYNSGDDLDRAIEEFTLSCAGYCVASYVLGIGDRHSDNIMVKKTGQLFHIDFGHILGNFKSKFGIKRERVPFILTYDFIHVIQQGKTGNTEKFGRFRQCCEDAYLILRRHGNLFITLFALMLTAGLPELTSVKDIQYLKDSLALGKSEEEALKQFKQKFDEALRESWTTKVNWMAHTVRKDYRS
T1 sequence (P27986 whole entry partner): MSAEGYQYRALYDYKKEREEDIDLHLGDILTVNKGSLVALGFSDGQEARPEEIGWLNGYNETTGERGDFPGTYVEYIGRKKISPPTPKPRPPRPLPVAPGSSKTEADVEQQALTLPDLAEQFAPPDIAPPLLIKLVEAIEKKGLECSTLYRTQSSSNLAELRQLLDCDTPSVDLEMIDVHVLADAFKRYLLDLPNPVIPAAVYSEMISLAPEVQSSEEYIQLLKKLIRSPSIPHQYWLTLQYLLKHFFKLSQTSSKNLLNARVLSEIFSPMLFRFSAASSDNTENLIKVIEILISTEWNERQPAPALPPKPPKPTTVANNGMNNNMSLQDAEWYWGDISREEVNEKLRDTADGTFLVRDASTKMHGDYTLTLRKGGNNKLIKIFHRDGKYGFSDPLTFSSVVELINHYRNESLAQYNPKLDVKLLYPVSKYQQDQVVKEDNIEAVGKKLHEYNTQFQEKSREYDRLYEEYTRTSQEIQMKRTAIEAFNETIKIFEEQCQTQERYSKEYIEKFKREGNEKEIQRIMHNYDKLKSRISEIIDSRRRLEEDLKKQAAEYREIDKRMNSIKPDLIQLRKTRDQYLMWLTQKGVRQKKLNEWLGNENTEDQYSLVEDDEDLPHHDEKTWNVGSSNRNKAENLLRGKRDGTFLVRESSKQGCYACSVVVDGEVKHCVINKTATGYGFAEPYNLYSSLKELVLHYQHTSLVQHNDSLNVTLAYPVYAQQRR

- IC50 [1]: 0.033 µM
- IC50 [2]: 0.00943 µM
Compound: CNC(=O)CCCn1cnc2ccc(-c3cnc(OC)c(NS(=O)(=O)c4ccc(F)cc4Cl)c3)cc2c1=O [WX198]
